Measurements: patent US7351724B2, “Oxadiazole ketone inhibitors of fatty acid amide hydrolase” (The Scripps Research Institute, priority 2004, dated 2008)
Like-named read-outs stand apart in the source and are kept apart here.

Experiments:
FAAH [1] = molecular target: T1, FAAH (Homo sapiens, UniProt O00519); conditions: cited from earlier work
T1 sequence (O00519 1-579): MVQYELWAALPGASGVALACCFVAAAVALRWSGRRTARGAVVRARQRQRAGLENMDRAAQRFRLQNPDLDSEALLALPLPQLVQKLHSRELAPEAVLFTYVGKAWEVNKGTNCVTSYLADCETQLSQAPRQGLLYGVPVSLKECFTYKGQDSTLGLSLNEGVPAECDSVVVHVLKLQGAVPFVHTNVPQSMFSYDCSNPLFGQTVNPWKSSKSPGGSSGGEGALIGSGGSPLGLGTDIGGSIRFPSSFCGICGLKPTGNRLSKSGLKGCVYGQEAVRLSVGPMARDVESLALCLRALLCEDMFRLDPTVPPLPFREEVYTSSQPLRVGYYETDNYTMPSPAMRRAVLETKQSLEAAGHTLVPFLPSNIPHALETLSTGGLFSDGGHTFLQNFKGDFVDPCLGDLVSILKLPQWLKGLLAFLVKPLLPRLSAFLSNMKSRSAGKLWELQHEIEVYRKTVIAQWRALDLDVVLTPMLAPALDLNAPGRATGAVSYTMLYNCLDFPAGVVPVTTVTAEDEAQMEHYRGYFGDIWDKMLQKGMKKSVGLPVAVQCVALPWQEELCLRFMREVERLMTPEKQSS

rats [2] = conditions: WO 04/033652; cited from earlier work
rats [3] = conditions: cited from earlier work
CREAE mice = conditions: Baker 2001; cited from earlier work
KIAA1363 = molecular target: T2, KIAA1363 (Mus musculus, UniProt Q8BLF1); experiment: Proteome-wide serine hydrolase selectivity screen, competition with RPFP active site labeling; type: binding; conditions: inhibition of RPFP labeling, read-out: KIAA IC50
T2 construct: from tissue
T2 sequence (Q8BLF1 1-408): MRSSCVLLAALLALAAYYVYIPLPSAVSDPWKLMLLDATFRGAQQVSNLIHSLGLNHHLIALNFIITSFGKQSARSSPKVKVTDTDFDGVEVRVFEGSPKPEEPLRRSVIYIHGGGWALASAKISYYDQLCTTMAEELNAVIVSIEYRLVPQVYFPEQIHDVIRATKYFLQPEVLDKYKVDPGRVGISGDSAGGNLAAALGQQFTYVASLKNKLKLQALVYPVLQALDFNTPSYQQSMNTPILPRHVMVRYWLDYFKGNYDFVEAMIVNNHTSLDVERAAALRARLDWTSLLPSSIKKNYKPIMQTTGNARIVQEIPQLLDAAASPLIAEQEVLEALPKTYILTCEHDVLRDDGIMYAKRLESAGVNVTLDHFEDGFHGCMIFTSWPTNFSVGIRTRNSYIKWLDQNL
Source text: (§1) Serine hydrolases represent one of the largest classes of enzymes collectively comprising approximately 3% of the predicted Drosophila proteome. Subclasses include serine proteases, lipases, esterases, amidases, and transacetylases.

FAAH [4] = molecular target: T3, FAAH (Mus musculus, UniProt O08914); experiment: as above; type: binding; conditions: inhibition of RPFP labeling
T3 construct: from tissue
T3 sequence (O08914 1-579): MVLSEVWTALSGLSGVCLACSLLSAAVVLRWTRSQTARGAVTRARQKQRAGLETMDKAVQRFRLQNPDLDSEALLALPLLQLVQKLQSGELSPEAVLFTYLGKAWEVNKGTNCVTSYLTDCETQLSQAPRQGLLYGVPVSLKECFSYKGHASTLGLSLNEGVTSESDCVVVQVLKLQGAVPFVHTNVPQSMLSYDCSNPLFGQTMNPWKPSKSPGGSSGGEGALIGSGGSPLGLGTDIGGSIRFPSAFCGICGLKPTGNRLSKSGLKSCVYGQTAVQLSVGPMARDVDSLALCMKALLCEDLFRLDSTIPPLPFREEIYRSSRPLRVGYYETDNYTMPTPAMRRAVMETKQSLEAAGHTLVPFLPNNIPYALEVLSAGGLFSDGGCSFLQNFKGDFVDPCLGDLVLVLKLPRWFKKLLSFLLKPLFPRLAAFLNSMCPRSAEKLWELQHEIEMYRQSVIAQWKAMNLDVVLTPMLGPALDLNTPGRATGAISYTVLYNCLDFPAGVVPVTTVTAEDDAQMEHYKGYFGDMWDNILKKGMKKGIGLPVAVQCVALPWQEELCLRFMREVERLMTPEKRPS
Source text: as §1

FAAH [5] = molecular target: T4, FAAH (Rattus norvegicus, UniProt P97612); experiment: FAAH enzyme assay, hydrolysis of 14C-oleamide by solubilized liver plasma membrane extract; type: biochemical
T4 construct: using a solubilized liver plasma membrane extract containing FMH; from tissue; host or cells: liver plasma membrane (solubilized extract)
T4 sequence (P97612 1-579): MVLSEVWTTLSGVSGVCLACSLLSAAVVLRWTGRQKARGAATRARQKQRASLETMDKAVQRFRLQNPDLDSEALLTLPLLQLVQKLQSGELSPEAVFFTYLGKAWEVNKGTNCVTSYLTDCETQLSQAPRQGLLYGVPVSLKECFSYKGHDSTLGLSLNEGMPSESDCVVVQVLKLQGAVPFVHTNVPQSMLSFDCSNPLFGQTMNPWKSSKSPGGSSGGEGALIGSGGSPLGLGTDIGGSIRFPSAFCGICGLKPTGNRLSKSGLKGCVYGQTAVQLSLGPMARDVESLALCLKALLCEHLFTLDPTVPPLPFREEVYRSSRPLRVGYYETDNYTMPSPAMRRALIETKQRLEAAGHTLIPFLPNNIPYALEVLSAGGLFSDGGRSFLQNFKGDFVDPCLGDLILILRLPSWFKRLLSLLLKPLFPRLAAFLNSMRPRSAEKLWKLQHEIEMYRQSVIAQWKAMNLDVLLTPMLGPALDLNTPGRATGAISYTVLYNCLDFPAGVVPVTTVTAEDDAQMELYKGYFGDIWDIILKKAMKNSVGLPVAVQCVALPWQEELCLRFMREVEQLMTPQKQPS
Description: All enzyme assays were performed at 20-23° C. using a solubilized liver plasma membrane extract containing […] in a reaction buffer of 125 mM Tris, 1 mM EDTA, 0.2% glycerol, 0.02% Triton X-100, 0.4 mM HEPES, pH 9.0 buffer (Patricelli, M. P. et al. Bioorg. Med. Chem. Lett. 1998, 8, 613-618; Patterson, J. E., et al. J. Am Chem. Soc. 1996, 118, 5938-5945). The initial rates of hydrolysis were monitored by following the breakdown of ^14C-oleamide to oleic acid as described previously (Cravatt, B. F. et al. Science 1995, 268, 1506-1509; Patricelli, M. P. et al., 1998). The inhibition was reversible, non time-dependent. Linear least squares fits were used for all reaction progress curves and R^2 values were consistently >0.97. IC50 values were determined from the inhibition observed at 3-5 different test compound concentrations (from three or more trials at each concentration) using the formula IC50=[I]/[(K0/Ki)−1], where K0 is the control reaction rate without inhibitor and Ki is the rate with test compound at concentration [I] (Conde-Frieboes, K., et al. J. Am. Chem. Soc. 1996, 118, 5519-5525). Ki values were determined by the Dixon Method (x-intercepts of weighted linear fits of [I] versus 1/rate plots at constant substrate concentration, which were converted to Ki values using the formula Ki=−xint/[1+[S]/Km]).

[6] = molecular target: T5, triacylglycerol hydrolase (TGH) (Mus musculus, UniProt Q8VCT4); experiment: Proteome-wide serine hydrolase selectivity screen, competition with RPFP active site labeling; type: binding; conditions: inhibition of RPFP labeling
T5 construct: from tissue
T5 sequence (Q8VCT4 19-565): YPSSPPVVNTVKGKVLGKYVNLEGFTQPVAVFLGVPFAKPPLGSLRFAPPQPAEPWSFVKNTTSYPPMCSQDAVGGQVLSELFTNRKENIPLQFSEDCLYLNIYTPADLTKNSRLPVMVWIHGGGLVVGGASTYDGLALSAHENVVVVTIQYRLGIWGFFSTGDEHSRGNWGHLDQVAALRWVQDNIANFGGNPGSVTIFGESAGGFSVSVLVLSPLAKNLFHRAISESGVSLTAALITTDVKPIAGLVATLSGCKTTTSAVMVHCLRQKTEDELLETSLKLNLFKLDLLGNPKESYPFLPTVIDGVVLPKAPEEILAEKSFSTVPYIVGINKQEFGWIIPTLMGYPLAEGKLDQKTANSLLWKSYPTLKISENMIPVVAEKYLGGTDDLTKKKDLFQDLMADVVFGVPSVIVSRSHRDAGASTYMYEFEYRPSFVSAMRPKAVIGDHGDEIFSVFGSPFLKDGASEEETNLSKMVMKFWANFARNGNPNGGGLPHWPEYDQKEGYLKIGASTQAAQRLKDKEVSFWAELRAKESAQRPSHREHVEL
Source text: as §1
Biotinylated (B) or fluorescently-tagged (rhodamine, R) PEG-fluorophosphonate (BPFP or RPFP, respectively) have been used to isolate and identify (BPFP) or quantitate (RPFP) proteome serine hydrolases through selective, irreversible active site labeling (Kidd, D., et al., 2001; Liu, Y., et al., 1999). Extending this to the assessment of inhibitor selectivity required incubation of the proteome with RPFP in the presence of systematically varied concentrations of inhibitor followed by SDS-PAGE to detect serine hydrolases sensitive to the inhibitor (Leung, D., et al., 2003). A resulting inhibition of RPFP active site labeling correlated with inhibitor affinity for the target and permitted the simultaneous assessment of competitive enzymes.
Two enzymes emerged from the screen as competitive targets for the oxadiazole ketone compounds detailed herein: triacylglycerol hydrolase (TGH) and an uncharacterized membrane-bound hydrolase that lacks known substrates and function (KIAA1363) (Kidd, D., et al., 2001; Liu, Y., et al., 1999; Leung, D., et al., 2003).

rats [7] = conditions: Kathuria 2003; cited from earlier work
rats [8] = conditions: rat; Kathuria 2003; cited from earlier work
rats [9] = conditions: WO 02/087569; cited from earlier work
rats [10] = conditions: WO 02/087569; cited from earlier work; remark: listed apart in the source
[11] = Table 1, Dixon method, 14C-oleamide substrate, pH 9.0, 20-23° C., read-out: Ki
[12] = Table 2 (repeats the enzyme assay Ki), read-out: FAAH Ki

Row | SMILES | IC50 (KIAA1363) [nM] | IC50 (FAAH [4]) [nM] | Ki (FAAH [5]; [11]) [nM] | IC50 [6] [nM] | further results
1 | O=C(CCCCCCc1ccccc1)c1ncc(-c2ccccn2)o1 [OL-135] | – | – | – | – | FAAH inhibition (FAAH [1]): potent inhibitor; analgesic activity in tail emersion test (rats [2]): analgesic activity; analgesic efficacy/activity in hot plate test (rats [3]): analgesic activity
2 | CCCCCCCCCCCCCCCCS(=O)(=O)F [AM374] | – | – | – | – | spasticity (CREAE mice): significantly reduce spasticity
3 | O=C(CCCCCCc1ccccc1)c1nnc(-c2cccnc2)o1 [Example 9, 7-Phenyl-1-[5-(pyridin-3-yl)-1,3,4-oxadiazol-2-yl]-heptan-1-one] | > 100000 | 20 | 1 | 100 | –
4 | O=C(CCCCCCc1ccccc1)c1nnc(-c2ccccn2)o1 [Example 1, 7-Phenyl-1-[5-(pyridin-2-yl)-1,3,4-oxadiazol-2-yl]-heptan-1-one] | 50000 | 1 | – | 140 | –
5 | NC(=O)c1cccc(-c2cccc(OC(=O)NC3CCCCC3)c2)c1 [URB-597] | – | – | – | – | efficacy in zero plus maze model of anxiety (rats [7]): efficacy; analgesic efficacy in formalin test (rats [8]): analgesic efficacy; analgesic efficacy/activity in hot plate test (rats [3]): analgesic efficacy
6 | O=C(CCCCCCc1ccccc1)c1nnc(-c2ccccc2)o1 [Example 6, 7-Phenyl-1-(5-phenyl-1,3,4-oxadiazol-2-yl)-heptan-1-one] | > 100000 | 25 | 2 | 250 | Ki (FAAH [5]; [12]): 2 nM
7 | O=C(CCCCCCCc1ccccc1)c1nnc(-c2ccccn2)o1 [Example 3, 8-Phenyl-1-[5-(pyridin-2-yl)-1,3,4-oxadiazol-2-yl]-octan-1-one] | 60000 | 0.6 | 0.77 | 200 | –
8 | CCCCCCCC/C=C\CCCCCCCC(=O)c1nnc(-c2ccccc2)o1 [Example 7, 1-(5-Phenyl-1,3,4-oxadiazol-2-yl)-octadec-9-en-1-one] | – | – | 16 | – | –
9 | O=C(CCCCCc1ccccc1)c1nnc(-c2ccccn2)o1 [Example 2, 6-Phenyl-1-[5-(pyridin-2-yl)-1,3,4-oxadiazol-2-yl]-hexan-1-one] | 90000 | 4 | 0.85 | 30 | –
10 | Cc1nc(-c2ccccc2)c(-c2ccccc2)n1CCCCCCNC(=O)Oc1ccccc1F [BMS-1] | – | – | – | – | analgesic effect, Chung spinal nerve ligation model (rats [9]): analgesic effect; analgesic effect, Hargraves test (rats [10]): analgesic effect
11 | O=C(CCCCCCCCc1ccccc1)c1nnc(-c2ccccn2)o1 [Example 4, 9-Phenyl-1-[5-(pyridin-2-yl)-1,3,4-oxadiazol-2-yl]-nonan-1-one] | 3000 | 0.8 | 0.83 | 500 | Ki (FAAH [5]; [12]): 0.83 nM
12 | O=C(CCCCCCc1ccccc1)c1nnc(-c2ccncc2)o1 [Example 10, 7-Phenyl-1-[5-(pyridin-4-yl)-1,3,4-oxadiazol-2-yl]-heptan-1-one] | > 100000 | 20 | 1 | 30 | –
13 | O=C(CCCCCCc1ccccc1)c1nnc(-c2ccco2)o1 [Example 11] | > 100000 | 1 | – | 80 | –
14 | CCCCCCCC/C=C\CCCCCCCC(=O)c1nnc(-c2ccccn2)o1 [Example 5, 1-[5-(Pyridin-2-yl)-1,3,4-oxadiazol-2-yl]-octadec-9-en-1-one] | – | – | 3 | – | –
